Patent US20240226241A1, “FORMULATIONS FOR INTRAOCULAR DELIVERY OF PEPTIDES DERIVED FROM TYPE IV COLLAGEN” (AsclepiX Therapeutics, Inc., priority 2022, published 2024)
No end group written: not given here.

Experiments:
[1] = Pharmacokinetics after suprachoroidal injection, LC/MS/MS of plasma and ocular tissues; details: SCh injection
Procedure: (§1) This example evaluates the pharmacokinetics (PK)/tolerability of the AXT107 suspension (5% sucrose, 0.9% NaCl) at 4 different dose levels administered by suprachoroidal (Sch) injection in female Dutch Belted rabbits. In Phase 1 of these experiments, animals received a 100 μL SCh injection in both eyes on Day 0. In these experiments, Group 1 received 469 μg of AXT107 peptide, Group 2 received 246 μg of AXT107 peptide, and Group 3 received vehicle (i.e., 5% sucrose in saline).
(§2) Blood was collected from Group 3 pre-dose, and in terminal animals on Day 90, and was processed for plasma. All eyes in Groups 1 and 2 and two Group 3 eyes were collected and dissected. Blood and ocular tissues underwent PK analysis.
(§3) In the next studies, animals received a 100 μL SCh injection (of AXT107 suspension, 5% sucrose and 0.9% NaCl) in both eyes on Day 0. Group 1 animals received 340 μg of AXT107 peptide, Group 2 animals received 219 μg AXT107 peptide, Group 3 animals received 142 μg of AXT107 peptide, and Group 4 animals received 115 μg AXT107 peptide.
(§4) On Days 1, 15, 30, 60, and 90, n=2 animals/group were euthanized and plasma and ocular tissues were collected for PK.
(§5) Plasma and ocular tissues collected during the study were analyzed for AXT107 peptide PK parameters by non-GLP liquid chromatography with tandem-mass spectrometry (LC/MS/MS).

[2] = Tolerability after suprachoroidal injection (ocular examination, tonometry, OCT, H&E histopathology); details: for tolerability: 100 μL SCh injection in both eyes on Day 0, to Day 90
Procedure: This example evaluates the pharmacokinetics (PK)/tolerability of the AXT107 suspension (5% sucrose, 0.9% NaCl) at 4 different dose levels administered by suprachoroidal (Sch) injection in female Dutch Belted rabbits. In Phase 1 of these experiments, animals received a 100 μL SCh injection in both eyes on Day 0.
Ocular examinations were performed at baseline, and on Days 1, 3, 7, 15, 30, 60, and 90. […] Tonometry was performed at baseline, and on Days 1, 3, 7, 15, 30, 60, and 90. […] Optical coherence tomography (OCT) was performed at baseline, post-dose to confirm SCh dosing, and on Day 15.
All eyes in Groups 1 and 2 and two Group 3 eyes were collected and dissected. […] From Group 3, two eyes were collected and processed for hematoxylin & eosin (H&E) histopathology.
In the next studies, animals received a 100 μL SCh injection (of AXT107 suspension, 5% sucrose and 0.9% NaCl) in both eyes on Day 0. […] Ocular examinations were performed at baseline and on Days 1, 9, 30, 60, and 90.
Tonometry was performed at baseline and on Days 1, 9, 30, 60, and 90.
OCT was performed at baseline, post-dose to confirm SCh dosing, and in terminal animals on Days 15 and 30.
On Day 90, an additional Group 1 animal was euthanized and OU were processed for H&E histopathology.

[3] = rabbit, in vivo
Procedure: as §1, §2, §3, §4, §5

LRRFSTAPFAFIDINDVINF [AXT107 peptide]
drug levels in retina [1]: present
drug levels in aqueous humor ([1]; all timepoints): absent
drug levels in plasma ([1]; all timepoints): absent
H&E histopathology of eyes ([2]; Group 1 (340 μg), Day 90, both eyes, considered incidental (needle damage), unrelated to AXT107): mild mononuclear cell infiltrate in the limbal conjunctiva
tolerability ([2]; Phase 1: 469 μg and 246 μg): well tolerated
tolerability ([2]; all doses): well tolerated
drug levels in choroid/RPE [3]: present
